The values that follow come from patent publication US6870029B2, “Method of diagnosing and treating gliomas” (priority 1995, dated 2005).

One test concerns astrocytoma cells. In words: Proliferation assay, 3H-thymidine incorporation. Conditions: 24 hour incubation, vs untreated control. In kind it is cell-based, human. As to the method: Proliferation was studied quantitatively by determining incorporation of ^3H-thymidine. In brief, cells were incubated for 24 hours in the continuous presence or absence of Ara-C (cytosine arabinoside, 10 μM), DIDS (200 μM), DNDS (200 μM), zinc (200 μM) or chlorotoxin (600 nM). Cells were incubated with 1 μCi/ml radiolabelled thymidine ([methyl-^3H]thymidine) for the final 4 hours (at 37° C.). Culture dishes were rinsed three times with ice-cold PBS and solublized with 0.3N NaOH for 30 minutes at 37° C. One aliquot ([…]) was used for cell protein determination using the bicinchroninic assay (BCA; Pierce Rockford, Ill.). The remaining cell suspension was mixed with Ultima Gold, and radioactivity was determined with a scintillation counter. The results were expressed as cpm/μg protein.
Given that these Cl^− currents were consistently present in all astrocytoma cells tested from both primary cultures of surgical specimens and from established human astrocytoma cell lines, whether Cl^− currents influence astrocytoma proliferation was examined. Although the effects of Cl^− channel blockade on cell proliferation have been reported in Schwann cells (40) and in B lymphocytes (7), the importance of Cl^− ion channels in glia cells has never been shown. Cells were cultured in the continuous presence of the anti-mitotic agent Ara-C (10 μM), DIDS (200 μM), DNDS (200 μM), Zinc (200 μM), or chlorotoxin (600 nM) and compared the rate of proliferation to untreated (control) sister cultures. Cells were treated at 2 days in culture (DIC) and proliferation was assayed 24 hours later, at 3 DIC, a period of high proliferation of untreated control cultures. As expected, incubation in the anti-mitotic agent Ara-C led to a 70% decrease in proliferation (SD=1.3309, N=17).

In test [1] the test system is Glioma Chloride Channel (GCC). In kind it is cell-based, human. Conditions: for reversibility of current block: after bath application, short exposure times for DIDS and DNDS; for IC50: electrophysiologically determined, read-out: IC50 for inhibition of GCC currents. An excerpt:
Current and voltage recordings were obtained using standard whole-cell patch-clamp techniques with an Axopatch-1D amplifier (Axon Instruments). Patch-pipettes were made from thin-walled borosilicate glass (WPI, TW150F-40) o.d. 1.5 mm, i.d. 1.2 mm and were filled with a solution containing (in mM): KCl 145, MgCl2 1, CaCl2 0.2, EGTA 10, Hepes 10, pH adjusted to 7.4 using Tris, unless otherwise noted. Pipettes were not fire-polished and typically had resistances between 2-5MΩ. Cells were continuously superperfused with saline solution, allowing for rapid (<30 seconds) exchange of bath volume. The standard bath solution contained, in mM: NaCl 122.6, KCl 5, MgCl2 1.2, CaCl2 1.0, Na2HPO4 2.0, NaH2PO4 0.4, NaHCO3 25.0, Na2SO4 1.2, Glucose 10.5 (bubbled with 5% CO2/95% O2). Drugs used to block ionic conductances were prepared freshly as stock solutions for each experiment and added to bath solution. Osmolality was measured with a vapor pressure osmometer (Wescor, Logan, Utah) and adjusted to 308-312 mOsms.
For whole-cell recordings, cell capacitance compensation and series resistance compensation were used to minimize voltage errors. The amplifier reading of capacitance was used as the value for the whole-cell membrane capacitance. Series resistances, monitored at regular intervals throughout each experiment, were usually 5-10 MΩ, and series resistance compensation was typically set to ˜80%. Entrance potential, read from the amplifier at the time of entering the whole-cell configuration, was used to determine each cell's resting potential. Voltage-clamp recordings were used to search for voltage-activated currents and stimulation profiles were altered to fully activate chloride channels (pulses from −105 to 195 mV). Where indicated, P/4 leak subtraction was obtained using hyperpolarizing voltage steps to obtain leak currents. Current reversal potential (voltage at which I=0) was determined from IV plots in which tail current amplitudes were plotted as a function of voltage. Effects of channel blockers were assessed by comparing current traces, entrance potential, and reversal potential prior to and following drug application. Snap photographs were taken of each recorded cell using a CCD camera and a video printer for cataloging of cell size, location, and morphology. Recordings were made at room temperature, typically 20-25° C.
Chlorotoxin is a protein having 36 amino acids that is derived from scorpion venom toxin that was originally described as a blocker of small conductance Cl^− channels in epithelial cells (8).
For the following studies, the electrophysiology format was as follows: standard current and voltage recordings were obtained using the whole-cell patch-clamp technique with an Axopatch-1D amplifier (Axon Instruments). Cells were continuously superperfused with bicarbonate-buffered saline at room temperature containing, in mM: NaCl 122.6, KCl 5, MgCl2 1.2, CaCl2 1.0, Na2HPO4 2.0, NaH2PO4 0.4, NaHCO3 25.0, Na2SO4 1.2, Glucose 10.5 (bubbled with 5% CO2). Electrodes (WPI, TW150F-40) o.d. 1.5 mm, i.d. 1.2 mm were filled with (in mM): KCl 145, MgCl2 1, CaCl2 0.2, EGTA 10, Hepes 10, pH adjusted to 7.4 using Tris, unless otherwise noted. Entrance potential, read from the amplifier at the time of entering the whole-cell configuration, was used to determine each cell's resting potential. Voltage-clamp recordings were used to search for voltage-activated currents and stimulation profiles were altered to fully activate chloride channels (pulses from −120 to 120 mV).

A further test has as its system normal human glial cells. The experiment in a line: 125[I]-chlorotoxin binding to non-tumor cells. Conditions: normal human glial cells and mixed brain cell cultures.
Another test deals with glioma cells. The experiment in a line: Immunotoxin (saporin) killing targeted to the Ctx binding site. In kind it is cell-based, human. Conditions: pre-treatment of cultures with 6 μM. As to the method: FIG. 19 show the glioma cells were exposed to 600 nM Ctx-GST followed by a mouse aGST and a goat anti-mouse antibody conjugated to saporin.
Using this approach, glioma cells were first treated with Ctx-GST, followed by a mouse anti-GST monoclonal antibody and lastly a goat anti-mouse antibody conjugated to saporin.

[2] abbreviates: applied to the cytosolic face, 200 μM.

Values joined by “and” are separate entries in the source; they are usually repeats but may differ in a detail not shown here. Equal values may be shown once. Read-outs that look alike come from different tables or passages of the source.

Procedure for normal human glial cells: Therefore, binding affinity was determined using (^125[I]-Ctx) radiolabeled with ^125[I]-sodium iodide by the chloramine-T method.

Regarding `Nc1ccn([C@@H]2O[C@H](CO)[C@@H](O)[C@@H]2O)c(=O)n1` [Ara-C, cytosine arabinoside], the “decrease in proliferation (3H-thymidine incorporation)” value (“decrease in proliferation” for short) in the test on astrocytoma cells (10 μM) stood at 70%.
For `O=S(=O)(O)c1cc(N=C=S)ccc1C=Cc1ccc(N=C=S)cc1S(=O)(=O)O` [DIDS, 4,4′-Diisothiocyanostilbene-2,2′-disulfonic acid], the “reversibility of current block” value in test [1] is reported as “partly reversible”. Also, the block of currents in test [1] (setting [2]) is on record as 50%±10.9. For the same molecule, the “decrease in proliferation” value with astrocytoma cells (200 μM) came to 16.4%.
For `O=[N+]([O-])c1ccc(C=Cc2ccc([N+](=O)[O-])cc2S(=O)(=O)O)c(S(=O)(=O)O)c1` [DNDS, 4,4′-Dinitrostilbene-2,2′-disulfonic acid], in that order: “partly reversible”, 62% and 38.2%.
`[Cd]` [cadmium] came in with a block of currents in test [1] (25 mM as printed) of 42%. In addition, the “decrease in peak currents” value in test [1] (bath application of 25 μM) was 42%±18.5.
For the molecule `[Zn]` [zinc], in the test with astrocytoma cells (200 μM), the “decrease in proliferation” value was determined as 72.6%.
Turning to chlorotoxin, in test [1], the “reversibility of current block” value is listed as “partially reversible” and the 50% inhibitory concentration (IC50) (commonly the concentration at which inhibition is half-maximal) was 950 nM. Also, the “block of Cl− currents” value in test [1] (applied to the cytoplasmic face, 2.5 μM) is recorded as 60.44%. The “decrease of outward currents” value in test [1] (bath application of 590 nM, STTG1 cells, voltage steps −105 to +195 mV) turned out to be 81%. In addition, in test [1] (listed as Ctx), the IC50 was around 950 nM. Besides, the “increase in proliferation (3H-thymidine incorporation)” value in the test with astrocytoma cells (600 nM) was 37.8% and 37%. The specific binding entry in the test on normal human glial cells is reported as “no specific Ctx binding”. Also, in the test on glioma cells, the “prevention of immunotoxin cell death” value was “largely prevented”.
For glutathione-S-transferase [GST], the “reduction in Cl− currents” value in test [1] is “ineffective”.
